Results as given in US6759234B1, “Compositions and methods for administering to humans, peptides capable of down regulating an antigen specific immune response” (Immulogic Pharmaceutical Corporation, priority 1994, dated 2004).
Ends that are not written are not given here.

Tested on: IgG and IgE antibodies to Fel d I, peptide X and peptide Y
Assay: Protocol P92-01 Phase I antibody studies and skin testing with the peptides (antigenicity)
Type: in vivo, human cat-allergic subjects
Conditions: Week 8
Description: This Phase I, open-label, dose-escalating safety study was conducted to determine the safety of the administration of the peptide X (SEQ ID NO 1) and peptide Y (SEQ ID NO 2). The antigenicity of the components was also evaluated, as was the activity of the peptides in altering skin test sensitivity.
Safety was assessed by evaluations of clinical laboratory parameters, physical examination, antibody studies and adverse experiences. Activity was assessed by analysis of skin testing. Prick and intradermal skin testing with both affinity purified native Fel d I and the peptides were performed one week prior to, and two and six weeks following the treatment period. Sixteen patients were treated with peptides X and Y during the study. […] Adverse events recorded with the trial were typical of those seen in open label allergy studies. Patients were all cat allergic individuals in this trial and tolerated dose orders of magnitude higher than can be achieved with conventional immunotherapy.

Row | Sequence | skin test reaction to the peptide in a single patient
1 | KALPVVLENARILKNCVDAKMTEEDKE [peptide Y] | delayed local reaction
2 | KRDVDLFLTGTPDEYVEQVAQYKALPV [peptide X] | substantial skin test reaction
